Data taken from PubChem BioAssay AID1259408 (Genetic Toxicology Data Bank (GENE-TOX), 2018).
Active and inactive are the calls of the source. How the calls were made is not given here.

Test system: GENE-TOX genotoxicity assays, various organisms and cells
Test: GENE-TOX mutagenicity studies
Conditions: for call: Assay Type: In vivo carcinogenicity studies, Assay Code: CCG+
[1] = Species/Cell Type: Neurospora crassa, Assay Type: Forward gene mutation, Assay Code: NEF+, Evaluation Type: Evaluation A (Pre-1980)
[2] = Species/Cell Type: Nonhuman, Evaluation Type: Evaluation A (Pre-1980)
[3] = Species/Cell Type: Salmonella typhimurium (one or more of the five standard strains: TA98, TA100, TA1535, TA1537, and TA1538), Assay Type: Histidine reverse gene mutation, Ames assay, Assay Code: SAL+, Evaluation Type: Evaluation A (Pre-1980)
[4] = Species/Cell Type: Salmonella typhimurium (one or more of the five standard strains: TA98, TA100, TA1535, TA1537, and TA1538), Assay Type: Histidine reverse gene mutation, Ames assay, Assay Code: SAL+*, Activation: With metabolic activation, Evaluation Type: Evaluation A (Pre-1980)
[5] = Species/Cell Type: Human lymphocytes, Assay Type: Sister-chromatid exchange (SCE) in vitro, Assay Code: SCL+D, Dose Response: With dose response, Evaluation Type: Evaluation B (Post-1980)
[6] = Species/Cell Type: Human, Assay Type: Sister-chromatid exchange (SCE) in vitro, Assay Code: SC1+D, Dose Response: With dose response, Evaluation Type: Evaluation B (Post-1980)
[7] = Species/Cell Type: Escherichia coli polA (W3119 vs P3478), Assay Type: Rec-assay, DNA effects (bacterial DNA repair), Assay Code: RE1+, Evaluation Type: Evaluation A (Pre-1980)

`COc1cc2c(c3oc4cccc(O)c4c(=O)c13)[C@@H]1C=CO[C@@H]1O2` was tested, and the mutagenic call (Species/Cell Type: Bacillus subtilis (H17 vs M45), Assay Type: Rec-assay, spot test, DNA effects (bacterial DNA repair), Assay Code: REWT, Evaluation Type: Evaluation A (Pre-1980)) was “no conclusion”, the mutagenic call (Species/Cell Type: Human diploid fibroblasts, Assay Type: Unscheduled DNA synthesis (UDS) in vitro, DNA effects, Assay Code: UDH+*, Activation: With metabolic activation, Evaluation Type: Evaluation A (Pre-1980)) was “active; positive” and the mutagenic call [1] was “active; positive”. For the same compound, the mutagenic call (Species/Cell Type: Nonhuman, Assay Type: Chromosome aberrations in vitro, Assay Code: CY&+, Evaluation Type: Evaluation A (Pre-1980)) was “active; positive”, the call [2] was “active; positive” and the mutagenic call (Species/Cell Type: Nonhuman, Assay Type: Sister-chromatid exchange (SCE) in vivo, Assay Code: SC3+D, Dose Response: With dose response, Evaluation Type: Evaluation B (Post-1980)) was “active; positive”. For the same compound, the mutagenic call (Species/Cell Type: Saccharomyces cerevisiae, Assay Type: Mitotic recombination or gene conversion, Assay Code: YEH+*, Activation: With metabolic activation, Evaluation Type: Evaluation A (Pre-1980)) was “active; positive” and the mutagenic call [3] was “active; positive”.
`[Cl][Cu][Cl]` was tested, and the mutagenic call (Species/Cell Type: Bacillus subtilis (H17 vs M45), Assay Type: Rec-assay, spot test, DNA effects (bacterial DNA repair), Assay Code: REW-, Evaluation Type: Evaluation A (Pre-1980)) was “inactive; negative”.
For `CCCCCCCCCCCCCCCCCCOCC(O)COP(=O)([O-])OCC[N+](C)(C)C` (stereo not drawn), the mutagenic call (Species/Cell Type: Mammalian polychromatic erythrocytes, Assay Type: Micronucleus test, chromosome aberrations, Assay Code: MNTT, Evaluation Type: Evaluation B (Post-1980)) was “no conclusion”.
In the case of `O=S(=O)(O)c1ccc(O)c2ncccc12`, the mutagenic call [4] is reported as “active; positive”.
With `CCCCN(CC(C)=O)N=O` the mutagenic call [4] was “active; positive”.
With `CCSCCC(N)C(=O)O` (stereo not drawn) the mutagenic call (Species/Cell Type: Neurospora crassa, Assay Type: Aneuploidy, chromosome aberrations, Assay Code: NEN-, Evaluation Type: Evaluation A (Pre-1980)) was “inactive; negative”, the call [2] was “active; positive” and the mutagenic call (Species/Cell Type: Nonhuman, Assay Type: Sister-chromatid exchange (SCE) in vitro, Assay Code: SC2+, Evaluation Type: Evaluation B (Post-1980)) was “active; positive”.
`O=C1C(=O)c2ccccc2-c2ccccc21` was tested, and the mutagenic call (Species/Cell Type: Allium cepa, Assay Type: Chromosome aberrations, Assay Code: ALC-, Evaluation Type: Evaluation A (Pre-1980)) was “inactive; negative”.
In the case of `CC(CN1CC(=O)NC(=O)C1)N1CC(=O)NC(=O)C1` (stereo not drawn), the mutagenic call (Species/Cell Type: Salmonella typhimurium (one or more of the five standard strains: TA98, TA100, TA1535, TA1537, and TA1538), Assay Type: Histidine reverse gene mutation, Ames assay, Assay Code: SAL-, Evaluation Type: Evaluation A (Pre-1980)) is reported as “inactive; negative”.
`Cc1ccc2cc3c(ccc4ccccc43)c3c2c1CC3` was tested, and the mutagenic call (Species/Cell Type: Chinese hamster lung (V79) cells, Assay Type: Forward gene mutation at the HPRT or ouabain locus, Assay Code: V79+*, Activation: With metabolic activation, Evaluation Type: Evaluation A (Pre-1980)) was “active; positive”, the mutagenic call (Species/Cell Type: Chinese hamster lung (V79) cells, Assay Type: Forward gene mutation, host-mediated assay, Assay Code: HMG+, Evaluation Type: Evaluation A (Pre-1980)) was “active; positive” and the mutagenic call (Species/Cell Type: Chinese hamster ovary (CHO) cells, Assay Type: Forward gene mutation at the HPRT locus, Assay Code: CHO+*, Activation: With metabolic activation, Evaluation Type: Evaluation B (Post-1980)) was “active; positive”. For the same compound, the mutagenic call (Species/Cell Type: Drosophila melanogaster, Assay Type: Sex-linked recessive lethal gene mutation, Assay Code: SRLT, Evaluation Type: Evaluation A (Pre-1980)) was “no conclusion”, the mutagenic call (Species/Cell Type: Fischer rat embryo (RLV/1706) cells, Assay Type: Cell transformation, viral enhanced, Assay Code: CTR+, Evaluation Type: Evaluation A (Pre-1980)) was “active; positive” and the mutagenic call (Species/Cell Type: Fischer rat embryo (SA7/RE) cells, Assay Type: Cell transformation, viral enhanced, Assay Code: CTA+, Evaluation Type: Evaluation A (Pre-1980)) was “active; positive”. The mutagenic call (Species/Cell Type: Human diploid fibroblasts, Assay Type: Unscheduled DNA synthesis (UDS) in vitro, DNA effects, Assay Code: UDH+, Evaluation Type: Evaluation A (Pre-1980)) was “active; positive”, the mutagenic call [5] was “active; positive” and the mutagenic call [6] was “active; positive”. For the same compound, the mutagenic call (Species/Cell Type: Mammalian polychromatic erythrocytes, Assay Type: Micronucleus test, chromosome aberrations, Assay Code: MNTT, Evaluation Type: Evaluation A (Pre-1980)) was “no conclusion”, the mutagenic call (Species/Cell Type: Mouse (BALB/c-3T3) cells, Assay Type: Cell transformation, Assay Code: CTB+D, Dose Response: With dose response, Evaluation Type: Evaluation A (Pre-1980)) was “active; positive” and the mutagenic call (Species/Cell Type: Mouse (C3H/10T1/2) cells, Assay Type: Cell transformation, Assay Code: CTH+D, Dose Response: With dose response, Evaluation Type: Evaluation A (Pre-1980)) was “active; positive”. The mutagenic call (Species/Cell Type: Mouse embryo (AKR/ME) cells, Assay Type: Cell transformation, Assay Code: CTK+, Evaluation Type: Evaluation A (Pre-1980)) was “active; positive”, the mutagenic call (Species/Cell Type: Mouse prostate cells, Assay Type: Cell transformation, Assay Code: CTM+D, Dose Response: With dose response, Evaluation Type: Evaluation A (Pre-1980)) was “active; positive” and the mutagenic call (Species/Cell Type: Mouse, Sex: Male, Assay Type: Sperm morphology, Assay Code: SPI+, Evaluation Type: Evaluation A (Pre-1980)) was “active; positive”. The mutagenic call [1] was “active; positive”, the mutagenic call (Species/Cell Type: Nonhuman, Assay Type: Chromosome aberrations in vitro, Assay Code: CY&-, Evaluation Type: Evaluation A (Pre-1980)) was “inactive; negative” and the call [2] was “active; positive”. The mutagenic call (Species/Cell Type: Nonhuman, Assay Type: Sister-chromatid exchange (SCE) in vitro, Assay Code: SC2+, Evaluation Type: Evaluation A (Pre-1980)) was “active; positive”, the mutagenic call (Species/Cell Type: Nonhuman, Assay Type: Sister-chromatid exchange (SCE) in vivo, Assay Code: SC3+D, Dose Response: With dose response, Evaluation Type: Evaluation A (Pre-1980)) was “active; positive” and the mutagenic call (Species/Cell Type: Rat primary hepatocytes, Assay Type: Unscheduled DNA synthesis (UDS) in vitro, DNA effects, Assay Code: UDP+D, Dose Response: With dose response, Evaluation Type: Evaluation A (Pre-1980)) was “active; positive”. The mutagenic call [4] was “active; positive”, the mutagenic call (Species/Cell Type: Salmonella typhimurium, Assay Type: Forward and reverse gene mutation, body fluid assay, Assay Code: BFU-, Evaluation Type: Evaluation A (Pre-1980)) was “inactive; negative” and the mutagenic call (Species/Cell Type: Syrian hamster embryo (SA7/SHE) cells, Assay Type: Cell transformation, viral enhanced, Assay Code: CT7+, Evaluation Type: Evaluation A (Pre-1980)) was “active; positive”. The mutagenic call (Species/Cell Type: Syrian hamster embryo (SHE) cells, Assay Type: Cell transformation, clonal assay, Assay Code: CTC+D, Dose Response: With dose response, Evaluation Type: Evaluation A (Pre-1980)) was “active; positive” and the mutagenic call (Species/Cell Type: Syrian hamster embryo (SHE) cells, Assay Type: Cell transformation, focus assay, Assay Code: CTF+, Evaluation Type: Evaluation A (Pre-1980)) was “active; positive”.
In the case of `OCc1ccc(-c2ccccc2)cc1`, the mutagenic call (Species/Cell Type: Chinese hamster ovary (CHO) cells, Assay Type: Forward gene mutation at the HPRT locus, Assay Code: CHOT, Evaluation Type: Evaluation B (Post-1980)) is reported as “no conclusion” and the mutagenic call (Species/Cell Type: Mammalian polychromatic erythrocytes, Assay Type: Micronucleus test, chromosome aberrations, Assay Code: MNT+U, Dose Response: Unconfirmed positive response, Evaluation Type: Evaluation B (Post-1980)) is reported as “active; positive”.
`Cc1c([N+](=O)[O-])cc[n+]([O-])c1C` was tested, and the mutagenic call [7] was “active; positive”.
With `O=S(=O)(O)c1ccccc1/C=C\c1ccc(-c2ccc(/C=C\c3ccccc3S(=O)(=O)O)cc2)cc1` the mutagenic call (Species/Cell Type: Rodents, Sex: Male, Assay Type: Dominant lethal test, Assay Code: DLT-, Evaluation Type: Evaluation A (Pre-1980)) was “inactive; negative”, the mutagenic call (Species/Cell Type: Saccharomyces cerevisiae, Assay Type: Mitotic recombination or gene conversion, Assay Code: YECT, Evaluation Type: Evaluation A (Pre-1980)) was “no conclusion” and the mutagenic call (Species/Cell Type: Salmonella typhimurium (one or more of the five standard strains: TA98, TA100, TA1535, TA1537, and TA1538), Assay Type: Histidine reverse gene mutation, Ames assay, Assay Code: SALT, Evaluation Type: Evaluation A (Pre-1980)) was “no conclusion”.
`C1O[C@@H]1[C@@H]1CO1` was tested, and the mutagenic call (Species/Cell Type: Arabidopsis species, Assay Type: Gene mutation, Assay Code: ARM+, Evaluation Type: Evaluation A (Pre-1980)) was “active; positive”, the mutagenic call (Species/Cell Type: Schizosaccharomyces pombe, Assay Type: Reverse gene mutation, Assay Code: YEZ+, Evaluation Type: Evaluation A (Pre-1980)) was “active; positive” and the mutagenic call (Species/Cell Type: Zea mays (corn), Assay Type: Gene mutation, Assay Code: ZEM+, Evaluation Type: Evaluation A (Pre-1980)) was “active; positive”.
In the case of `Cc1nc(NO)cc2[nH]c3ccccc3c12`, the mutagenic call [5] is reported as “active; positive” and the mutagenic call [6] is reported as “active; positive”.
For `CON(C)C(=O)Nc1ccc(Br)cc1`, the mutagenic call (Species/Cell Type: Hordeum vulgare (barley), Assay Type: Chromosome aberrations, Assay Code: HOC-, Evaluation Type: Evaluation A (Pre-1980)) was “inactive; negative”.
In the case of `CN(N=O)C(=O)N[C@@H](C=O)[C@@H](O)[C@H](O)[C@H](O)CO`, the mutagenic call (Species/Cell Type: Arabidopsis species, Assay Type: Gene mutation, Assay Code: ARM+D, Dose Response: With dose response, Evaluation Type: Evaluation A (Pre-1980)) is reported as “active; positive”, the mutagenic call (Species/Cell Type: Chinese hamster lung (V79) cells, Assay Type: Forward gene mutation at the HPRT or ouabain locus, Assay Code: V79+, Evaluation Type: Evaluation A (Pre-1980)) is reported as “active; positive” and the mutagenic call [7] is reported as “active; positive”. The call [2] was “active; positive”, the mutagenic call (Species/Cell Type: Nonhuman, Assay Type: Sister-chromatid exchange (SCE) in vivo, Assay Code: SC3+, Evaluation Type: Evaluation B (Post-1980)) was “active; positive” and the mutagenic call [3] was “active; positive”. The mutagenic call (Species/Cell Type: Salmonella typhimurium, Assay Type: Forward and reverse gene mutation, body fluid assay, Assay Code: BFU+, Evaluation Type: Evaluation A (Pre-1980)) was “active; positive” and the mutagenic call (Species/Cell Type: Salmonella typhimurium, Assay Type: Forward and reverse gene mutation, host-mediated assay, Assay Code: HMA+, Evaluation Type: Evaluation A (Pre-1980)) was “active; positive”.
